Data set [1] can be described thus: Partition coefficient (logP). Type of data set: physicochemical. The settings on record: octanol/water.
For data set [2], the system named is CCRF-CEM. The data set can be described thus: Effective dose against CCRF-CEM vcr 100 cells by using MTT assay. Type of data set: functional, Homo sapiens.
Data set [3] has as its system CCRF-CEM.
Description: Effective dose against CCRF-CEM vcr 100 cells by using rhodamine efflux studies.
Data set [4] deals with CCRF-CEM. To be noted: Homo sapiens.
Description: Compound was tested for effective dose against CCRF-CEM vcr 100 cells by using rhodamine efflux studies; na=not active
Data set [5] relates to CCRF-CEM. The data set can be described thus: Compound was tested for effective dose against CCRF-CEM vcr 100 cells by using MTT assay; na=not active. Type of data set: functional, cell-based. To be noted: Homo sapiens.

Active and inactive are the calls of the source. The calls are words filed in the database; no cut-off is given here.

Compound `COc1ccccc1N1CCN(CC(O)c2oc3ccccc3c2CCc2ccccc2)CC1` (stereo not drawn) displayed a lipophilicity (logP) in data set [1] of 5.32. Also, the results for the ED50 in data set [2] and in data set [3] were 210 nM and 0.46 uM l-1, respectively.
In turn, `CCCNCC(O)c1oc2ccccc2c1CCc1ccccc1` (stereo not drawn) came in with a log partition coefficient (logP) in data set [1] of 4.07. Also, the ED50 in data set [2] came to 1800 nM; in data set [3] it was 13.61 uM l-1.
For `COc1ccccc1N1CCN(CC(=O)c2oc3ccccc3c2CCc2ccccc2)CC1` the same measures were 5.05, 2020 nM and 4.96 uM l-1.
`CCCN(C)CC(O)COc1ccccc1C(=O)CCc1ccccc1` (stereo not drawn) displayed a logP in data set [1] of 3.77. Moreover, the ED50 came out at 270 nM in data set [2] and 1.36 uM l-1 in data set [3].
For the compound `COc1ccc(N2CCN(CC(O)COc3ccccc3C(=O)CCc3ccccc3)CC2)cc1` (stereo not drawn), in data set [1], the logP worked out at 4.65. In addition, the ED50 came out at 110 nM in data set [2] and 0.28 uM l-1 in data set [3].
In data set [1], `O=C(CCc1ccccc1)c1ccccc1OCC(O)CN1CCOCC1` (stereo not drawn) came in with a logP of 2.54. The results for the ED50 in data set [2] and in data set [3] were 1490 nM and 13.56 uM l-1, respectively.
`O=C(CCc1ccccc1)c1ccccc1OCC(O)CNCc1ccccc1` (stereo not drawn) returned a logP in data set [1] of 4.3. For the same compound, the values for the ED50 in data set [2] and in data set [3] were 190 nM and 0.41 uM l-1, respectively.
For `O=C(CCc1ccccc1)c1ccccc1OCC(O)CN1CCCC1` (stereo not drawn) the same measures were 3.26, 520 nM and 2.55 uM l-1.
As for `CC(=O)c1ccccc1OCC(O)CN1CCN(c2ccc(F)cc2)CC1` (stereo not drawn), the lipophilicity (logP) in data set [1] was 2.67. Besides, the ED50 was 890 nM in data set [2] and 8.61 uM l-1 in data set [3].
`CCCNCC(O)c1oc2ccccc2c1CC` (stereo not drawn) returned a log partition coefficient (logP) in data set [1] of 3.1. For the same compound, the ED50 stood at 4190 nM in data set [2] and 69.6 uM l-1 in data set [3].
Turning to `O=C(CCc1ccccc1)c1ccccc1OCC(O)CN1CCN(c2ccc(F)cc2)CC1` (stereo not drawn), the log partition coefficient (logP) in data set [1] turned out to be 4.93. In addition, the ED50 in data set [2] is 150 nM; in data set [3], 0.16 uM l-1.
As to `CN(C)CC(O)COc1ccccc1C(=O)CCc1ccccc1` (stereo not drawn), the logP in data set [1] turned out to be 2.94. Besides, the ED50 came to 820 nM in data set [2] and 7.12 uM l-1 in data set [3].
`O=C(CCc1ccccc1)c1ccccc1OCC(O)CN1CCCCC1` (stereo not drawn) showed a logP in data set [1] of 3.67. Besides, the ED50 amounted to 290 nM in data set [2] and 1.65 uM l-1 in data set [3].
For `Cc1ccccc1N1CCN(CC(O)COc2ccccc2C(=O)CCc2ccccc2)CC1` (stereo not drawn) the same measures were 5.26, 50 nM and 0.06 uM l-1.
In the same order, the values of `CCCNCCc1oc2ccccc2c1CCc1ccccc1` are 4.71, 870 nM and 2.9 uM l-1.
`CCCNCC(O)COc1ccccc1C(=O)CCc1ccccc1` (stereo not drawn) [PROPAFENONE] came in with an ED50 in data set [3] of 3.55 uM l-1.
Consider `CCN(CC)CC(O)COc1ccccc1C(=O)CCc1ccccc1` (stereo not drawn), for which the log partition coefficient (logP) in data set [1] was 3.62. Further, the results for the ED50 in data set [2] and in data set [3] were 390 nM and 1.4 uM l-1, respectively.
In turn, `CC(C)N(CC(O)COc1ccccc1C(=O)CCc1ccccc1)C(C)C` (stereo not drawn) showed a logP in data set [1] of 4.25. Further, the results for the ED50 in data set [2] and in data set [3] were 290 nM and 0.61 uM l-1, respectively.
In turn, `CCC(=O)c1ccccc1OCC(O)CN1CCOCC1` (stereo not drawn) came in with a logP in data set [1] of 0.94. For the same compound, the ED50 entry in data set [4] and in data set [5] was “inactive” each time.
As for `CC(C)NCCc1oc2ccccc2c1CCc1ccccc1`, the lipophilicity (logP) in data set [1] worked out at 4.54. Further, the ED50 in data set [2] stood at 1100 nM; in data set [3], 5.8 uM l-1.

Values taken from ChEMBL document CHEMBL1129415, “Structure-activity relationship studies on benzofuran analogs of propafenone-type modulators of tumor cell multidrug resistance” (J Med Chem, 1996).
